Experimental data reported in patent US9808003B2, “Herbicidally active 2-(substituted-phenyl)-cyclopentane-1,3-dione compounds and derivatives thereof” (Syngenta Limited, priority 2013, dated 2017).

Assays:
Assay in all cases: Test 1A glasshouse assay, post-emergence herbicidal activity
Format in all cases: in vivo
Lolium perenne (LOLPE) = conditions: Lolium perenne, 312 h, application rate 250 g/ha, 13 days after application, visual (100%=total damage; 0%=no damage), read-out: Post-emergence Herbicidal Activity (% Phytotoxicity) LOLPE
Experimental: (§1) Seeds of a variety of test species were sown in standard soil in pots. After cultivation for one day (pre-emergence) or after 8 days cultivation (post-emergence) under controlled conditions in a glasshouse (at 24/16° C., day/night; 14 hours light; 65% humidity), the plants were sprayed with an aqueous spray solution derived from the formulation of the technical active ingredient in acetone/water (50:50) solution containing 0.5% Tween 20 (polyoxyethelyene sorbitan monolaurate, CAS RN 9005-64-5). The test plants were then grown under controlled conditions in a glasshouse (at 24/16° C., day/night; 14 hours light; 65% humidity) and watered twice daily. 13 days after application of the test herbicide, for pre- and post-emergence, the test was evaluated visually for percentage phytotoxicity to the plant (where 100%=total damage to plant; 0%=no damage to plant).
(§2) Lolium perenne (LOLPE), Alopecurus myosuroides (ALOMY), Echinochloa crus-galli (ECHCG), and Avena fatua (AVEFA); these are all grassy monocotyledonous weeds.

[1] = tested on: Echinochloa crus-galli (ECHCG); conditions: Echinochloa crus-galli, 312 h, application rate 250 g/ha, 13 days after application, visual (100%=total damage; 0%=no damage), read-out: Post-emergence Herbicidal Activity (% Phytotoxicity) ECHCG
Experimental: as §1, §2

[2] = tested on: Alopecurus myosuroides (ALOMY); conditions: Alopecurus myosuroides, 312 h, application rate 250 g/ha, 13 days after application, visual (100%=total damage; 0%=no damage), read-out: Post-emergence Herbicidal Activity (% Phytotoxicity) ALOMY
Experimental: as §1, §2

Avena fatua (AVEFA) = conditions: Avena fatua, 312 h, application rate 250 g/ha, 13 days after application, visual (100%=total damage; 0%=no damage), read-out: Post-emergence Herbicidal Activity (% Phytotoxicity) AVEFA
Experimental: as §1, §2

Row | SMILES | pest or weed control at 250 g/ha (Lolium perenne (LOLPE)) | pest or weed control at 250 g/ha [1] | pest or weed control at 250 g/ha [2] | pest or weed control at 250 g/ha (Avena fatua (AVEFA))
1 | Cc1cc(C)c(C2C(=O)CC(CCNC(=O)c3ncccc3Br)C2=O)c(C)c1 (centres unmarked) [Compound A46] | 100% | 90% | 60% | 70%
2 | Cc1cc(Oc2ncc(C(F)(F)F)cc2Cl)cc(C)c1C1C(=O)CC(CCNC(=O)c2ccccn2)C1=O (centres unmarked) [Compound A126B, N-[2-[3-[4-[[3-chloro-5-(trifluoromethyl)-2-pyridyl]oxy]-2,6-dimethyl-phenyl]-2,4-dioxo-cyclopentyl]ethyl]pyridine-2-carboxamide] | 90% | 100% | 90% | 90%
3 | Cc1cc(C)c(C2C(=O)CC(CCNC(=O)c3cnsn3)C2=O)c(C)c1 (centres unmarked) [Compound A60] | 80% | 70% | 80% | 90%
4 | Cc1cc(C)c(C2C(=O)CC(CCNC(=O)c3ccc(OC(F)F)cn3)C2=O)c(C)c1 (centres unmarked) [Compound A188] | 100% | 100% | 100% | 100%
5 | Cc1cc(C)c(C2C(=O)CC(CCNC(=O)c3ncc(C#N)cc3Cl)C2=O)c(C)c1 (centres unmarked) [Compound A150] | 80% | 80% | 70% | 90%
6 | Cc1cc(C)c(C2C(=O)CC(CCNC(=O)c3cccnc3F)C2=O)c(C)c1 (centres unmarked) [Compound A151] | 90% | 90% | 90% | 90%
7 | Cc1cc(C)c(C2C(=O)CC(CCNC(=O)c3nn(C)c(Cl)c3C)C2=O)c(C)c1 (centres unmarked) [Compound A160] | 90% | 100% | 90% | 100%
8 | Cc1cc(C)c(C2C(=O)CC(CCNC(=O)c3ccc(C=C(F)F)cn3)C2=O)c(C)c1 (centres unmarked) [Compound A190] | 90% | 90% | 80% | 90%
9 | Cc1cc(C)c(C2C(=O)CC(CCNC(=O)c3cccc[n+]3[O-])C2=O)c(C)c1 (centres unmarked) [Compound A37] | 90% | 80% | 100% | 80%
10 | Cc1cc(C)c(C2C(=O)CC(CCNC(=O)c3cccnc3Cl)C2=O)c(C)c1 (centres unmarked) [Compound A26] | 80% | 80% | 80% | 80%
11 | Cc1cc(C)c(C2C(=O)CC(CCNC(=O)c3csc(C)n3)C2=O)c(C)c1 (centres unmarked) [Compound A73] | 80% | 90% | 90% | 90%
12 | Cc1cc(-c2cc(F)cc(F)c2)cc(C)c1C1C(=O)CC(CCNC(=O)c2ccccn2)C1=O (centres unmarked) [Compound A109] | 100% | 100% | 100% | 100%
13 | Cc1cc(-n2cc(Cl)cn2)cc(C)c1C1C(=O)CC(CCNC(=O)c2cc(Cl)cc(Cl)n2)C1=O (centres unmarked) [Compound A141] | 70% | 100% | 60% | 10%
14 | Cc1cc(C)c(C2C(=O)CC(CCNC(=O)c3ncc(Cl)cc3F)C2=O)c(C)c1 (centres unmarked) [Compound A189] | 100% | 100% | 100% | 100%
15 | Cc1cc(-c2cccc(Cl)c2)cc(C)c1C1C(=O)CC(CCNC(=O)c2ccccn2)C1=O (centres unmarked) [Compound A111, N-[2-[3-[4-(3-chlorophenyl)-2,6-dimethyl-phenyl]-2,4-dioxo-cyclopentyl]ethyl]pyridine-2-carboxamide] | 100% | 100% | 100% | 100%
16 | Cc1cc(C)c(C2C(=O)CC(CCNC(=O)Cc3ccccn3)C2=O)c(C)c1 (centres unmarked) [Compound A45] | 80% | 60% | 50% | 80%
17 | Cc1cc(-c2ccccc2Cl)cc(C)c1C1C(=O)CC(CCNC(=O)c2ccccn2)C1=O (centres unmarked) [Compound A184] | 60% | 90% | 10% | 20%
